Measurements taken from patent publication US20250120989A1, “BRIDGED TRICYCLIC CARBAMOYLPYRIDONE COMPOUNDS AND USES THEREOF” (priority 2023, published 2025).

Assay: in vitro
Conditions: human, uninfected MT-4 cells

SMILES | CC50 at 5 days [µM]
CC[C@H](OP(=O)(O)O)[C@@H](C)OC(=O)OCOc1c2n(cc(C(=O)NCc3ccc(F)cc3F)c1=O)[C@@H]1CN(C2=O)[C@@H](C)CC[C@]12CC(C)=NO2 [Compound 77, (((3′S,5S,7′R)-10′-((2,4-difluorobenzyl)carbamoyl)-3,3′-dimethyl-1′,11′-dioxo-1′,4′,5′,11′-tetrahydro-3′H,4H,7′H-spiro[isoxazole-5,6′-[2,7]methanopyrido[1,2-a][1,4]diazonin]-12′-yl)oxy)methyl ((2R,3S)-3-(phosphonooxy)pentan-2-yl) carbonate] | 37
CC[C@@H](OP(=O)(O)O)[C@@H](C)OC(=O)OCOc1c2n(cc(C(=O)NCc3ccc(F)cc3F)c1=O)[C@@H]1CN(C2=O)[C@@H](C)CC[C@]12CC(C)=NO2 [Compound 76, (((3′S,5S,7′R)-10′-((2,4-difluorobenzyl)carbamoyl)-3,3′-dimethyl-1′,11′-dioxo-1′,4′,5′,11′-tetrahydro-3′H,4H,7′H-spiro[isoxazole-5,6′-[2,7]methanopyrido[1,2-a][1,4]diazonin]-12′-yl)oxy)methyl ((2R,3R)-3-(phosphonooxy)pentan-2-yl) carbonate] | 24.8
COC1=NO[C@@]2(CC[C@H](C)N3C[C@H]2n2cc(C(=O)NCc4ccc(F)cc4F)c(=O)c(OCOC(=O)OC[C@H](OP(=O)(O)O)C(C)C)c2C3=O)C1 [Compound 81, (((3′S,5S,7′R)-10′-((2,4-difluorobenzyl)carbamoyl)-3-methoxy-3′-methyl-1′,11′-dioxo-1′,4′,5′,11′-tetrahydro-3′H,4H,7′H-spiro[isoxazole-5,6′-[2,7]methanopyrido[1,2-a][1,4]diazonin]-12′-yl)oxy)methyl ((R)-3-methyl-2-(phosphonooxy)butyl) carbonate] | 36.9
CC1=NO[C@@]2(CC[C@H](C)N3C[C@H]2n2cc(C(=O)NCc4ccc(F)cc4F)c(=O)c(OCOC(=O)N(C)CC(=O)O)c2C3=O)C1 [Compound 45, N-(((((3′S,5S,7′R)-10′-((2,4-difluorobenzyl)carbamoyl)-3,3′-dimethyl-1′,11′-dioxo-1′,4′,5′,11′-tetrahydro-3′H,4H,7′H-spiro[isoxazole-5,6′-[2,7]methanopyrido[1,2-a][1,4]diazonin]-12′-yl)oxy)methoxy)carbonyl)-N-methylglycine] | 50
CC1=NO[C@@]2(CC[C@H](C)N3C[C@H]2n2cc(C(=O)NCc4ccc(F)cc4F)c(=O)c(OCOC(=O)OCCN(C)C)c2C3=O)C1 [Compound 14, (((3′S,5S,7′R)-10′-((2,4-difluorobenzyl)carbamoyl)-3,3′-dimethyl-1′,11′-dioxo-1′,4′,5′,11′-tetrahydro-3′H,4H,7′H-spiro[isoxazole-5,6′-[2,7]methanopyrido[1,2-a][1,4]diazonin]-12′-yl)oxy)methyl (2-(dimethylamino)ethyl) carbonate] | 17.1
CC[C@@H](OP(=O)(O)O)[C@H](C)OC(=O)OCOc1c2n(cc(C(=O)NCc3ccc(F)cc3F)c1=O)[C@@H]1CN(C2=O)[C@@H](C)CC[C@]12CC(C)=NO2 [Compound 73, (((3′S,5S,7′R)-10′-((2,4-difluorobenzyl)carbamoyl)-3,3′-dimethyl-1′,11′-dioxo-1′,4′,5′,11′-tetrahydro-3′H,4H,7′H-spiro[isoxazole-5,6′-[2,7]methanopyrido[1,2-a][1,4]diazonin]-12′-yl)oxy)methyl ((2S,3R)-3-(phosphonooxy)pentan-2-yl) carbonate] | 30.8
CC[C@H](OP(=O)(O)O)[C@H](C)OC(=O)OCOc1c2n(cc(C(=O)NCc3ccc(F)cc3F)c1=O)[C@@H]1CN(C2=O)[C@@H](C)CC[C@]12CC(OC)=NO2 [Compound 74, (((3′S,5S,7′R)-10′-((2,4-difluorobenzyl)carbamoyl)-3-methoxy-3′-methyl-1′,11′-dioxo-1′,4′,5′,11′-tetrahydro-3′H,4H,7′H-spiro[isoxazole-5,6′-[2,7]methanopyrido[1,2-a][1,4]diazonin]-12′-yl)oxy)methyl ((2S,3S)-3-(phosphonooxy)pentan-2-yl) carbonate] | 26.6
CC1=NO[C@@]2(CC[C@H](C)N3C[C@H]2n2cc(C(=O)NCc4ccc(F)cc4F)c(=O)c(OCOC(=O)OC[C@H](OP(=O)(O)O)C(C)C)c2C3=O)C1 [Compound 80, (((3′S,5S,7′R)-10′-((2,4-difluorobenzyl)carbamoyl)-3,3′-dimethyl-1′,11′-dioxo-1′,4′,5′,11′-tetrahydro-3′H,4H,7′H-spiro[isoxazole-5,6′-[2,7]methanopyrido[1,2-a][1,4]diazonin]-12′-yl)oxy)methyl ((R)-3-methyl-2-(phosphonooxy)butyl) carbonate] | 27.2
CC[C@H](OP(=O)(O)O)[C@H](C)OC(=O)OCOc1c2n(cc(C(=O)NCc3ccc(F)cc3F)c1=O)[C@@H]1CN(C2=O)[C@@H](C)CC[C@]12CC(C)=NO2 [Compound 72, (((3′S,5S,7′R)-10′-((2,4-difluorobenzyl)carbamoyl)-3,3′-dimethyl-1′,11′-dioxo-1′,4′,5′,11′-tetrahydro-3′H,4H,7′H-spiro[isoxazole-5,6′-[2,7]methanopyrido[1,2-a][1,4]diazonin]-12′-yl)oxy)methyl ((2S,3S)-3-(phosphonooxy)pentan-2-yl) carbonate] | 27.2
CC[C@H](OP(=O)(O)O)[C@@H](C)OC(=O)OCOc1c2n(cc(C(=O)NCc3ccc(F)cc3F)c1=O)[C@@H]1CN(C2=O)[C@@H](C)CC[C@]12CC(OC)=NO2 [Compound 79, (((3′S,5S,7′R)-10′-((2,4-difluorobenzyl)carbamoyl)-3-methoxy-3′-methyl-1′,11′-dioxo-1′,4′,5′,11′-tetrahydro-3′H,4H,7′H-spiro[isoxazole-5,6′-[2,7]methanopyrido[1,2-a][1,4]diazonin]-12′-yl)oxy)methyl ((2R,3S)-3-(phosphonooxy)pentan-2-yl) carbonate] | 45.7
CC[C@@H](OP(=O)(O)O)[C@@H](C)OC(=O)OCOc1c2n(cc(C(=O)NCc3ccc(F)cc3F)c1=O)[C@@H]1CN(C2=O)[C@@H](C)CC[C@]12CC(OC)=NO2 [Compound 78, (((3′S,5S,7′R)-10′-((2,4-difluorobenzyl)carbamoyl)-3-methoxy-3′-methyl-1′,11′-dioxo-1′,4′,5′,11′-tetrahydro-3′H,4H,7′H-spiro[isoxazole-5,6′-[2,7]methanopyrido[1,2-a][1,4]diazonin]-12′-yl)oxy)methyl ((2R,3R)-3-(phosphonooxy)pentan-2-yl) carbonate] | 28.6
CC[C@@H](OP(=O)(O)O)[C@H](C)OC(=O)OCOc1c2n(cc(C(=O)NCc3ccc(F)cc3F)c1=O)[C@@H]1CN(C2=O)[C@@H](C)CC[C@]12CC(OC)=NO2 [Compound 75, (((3′S,5S,7′R)-10′-((2,4-difluorobenzyl)carbamoyl)-3-methoxy-3′-methyl-1′,11′-dioxo-1′,4′,5′,11′-tetrahydro-3′H,4H,7′H-spiro[isoxazole-5,6′-[2,7]methanopyrido[1,2-a][1,4]diazonin]-12′-yl)oxy)methyl ((2S,3R)-3-(phosphonooxy)pentan-2-yl) carbonate] | 34.3
